pIC50, pKi: −log10 of the molar value.

The target in test [1] is Prostaglandin G/H synthase 2 (Ovis aries). In words: Inhibition of ovine COX-2 colorimetric enzyme immunoassay.
Test [2] has as its target Prostaglandin G/H synthase 2 (Homo sapiens) (UniProt P35354). In words: Binding affinity to human recombinant COX-2 assessed as inhibition constant preincubated for 5 mins followed by arachidonic acid addition measured every 30 sec for 10 mins by fluorescence based assay.
Test [3] deals with Prostaglandin G/H synthase 2 (Ovis aries). In words: Inhibition of ovine COX-2 using arachidonic acid as substrate measured after 2 mins by colorimetric enzyme immune assay.
Test [4] shares this target. Briefly: Inhibition of ovine COX-2 by colorimetric inhibitor screening assay.

Prostaglandin G/H synthase 2 (Homo sapiens), sequence (P35354 whole entry, looked up): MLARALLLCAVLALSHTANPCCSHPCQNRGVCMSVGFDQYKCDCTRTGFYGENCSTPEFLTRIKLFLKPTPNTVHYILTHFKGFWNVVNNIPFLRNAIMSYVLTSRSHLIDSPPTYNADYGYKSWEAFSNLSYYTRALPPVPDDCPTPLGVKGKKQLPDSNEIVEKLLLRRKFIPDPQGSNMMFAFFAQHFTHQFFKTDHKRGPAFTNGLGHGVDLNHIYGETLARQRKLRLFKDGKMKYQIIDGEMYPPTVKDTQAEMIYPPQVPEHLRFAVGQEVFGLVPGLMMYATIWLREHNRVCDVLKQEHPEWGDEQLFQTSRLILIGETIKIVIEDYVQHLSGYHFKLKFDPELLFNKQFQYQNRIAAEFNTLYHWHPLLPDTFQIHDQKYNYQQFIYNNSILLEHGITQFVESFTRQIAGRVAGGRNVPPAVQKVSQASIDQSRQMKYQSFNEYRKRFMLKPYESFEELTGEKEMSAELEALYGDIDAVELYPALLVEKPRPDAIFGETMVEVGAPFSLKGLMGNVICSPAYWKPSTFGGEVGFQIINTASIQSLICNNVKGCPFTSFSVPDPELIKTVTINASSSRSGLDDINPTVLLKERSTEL

What is called pIC50 is −log10 of the IC50, conventionally taken in molar units. Higher therefore signals a low IC50. In turn, `COc1ccc2cc(C(C)C(=O)O/N=C(\N)c3ccc(OC)c(OC)c3)ccc2c1` (stereo unspecified) gave a pIC50 in test [1] of 8.19.
Same read-out and setting: next, `COc1ccc2cc(C(C)C(=O)O/N=C(\N)c3ccc(Cl)cc3)ccc2c1` (stereo unspecified): 8.14.
What is called pKi is −log10 of the Ki, conventionally taken in molar units. `C=C(/C=C\C)/C(CSc1nnc(-c2cc(-c3ccc(OC)cc3)nc3ccccc23)n1-c1ccccc1)=N\O`: the pKi in test [2] was 4.02.
In test [3], `C/C(=N/Nc1ccc(C(=O)O)cc1)c1cccc(N2C(=O)c3ccccc3C2=O)c1` showed a pIC50 of 6.96.
For `COc1ccc(/C=C/C(=O)c2cccc(N3C(=O)c4ccccc4C3=O)c2)cc1OC`, the pIC50 in test [3] is 6.77.
As for `CC1=C(CC(=O)Sc2ccccc2)c2cc(F)ccc2/C1=C\c1ccc([S+](C)[O-])cc1` (stereo unspecified), in test [4], the pIC50 is 5.92.

The values above are taken from BindingDB's records for PubMed 34029774 (Dpsr University, 2021).
